Test results taken from patent publication US20240166671A1, “Novel Stannic Protoporfin Compositions, Methods of Making, and Uses Thereof” (Renibus Therapeutics, Inc., priority 2022, published 2024).

Key:
HO-1 = assay: HO-1/GAPDH mRNA (cortex) after IV FeS + SnPP, biomarker for oxidative stress; format: in vivo; conditions: combined with iron sucrose; HO-1 as indicator of oxidative stress
Protocol: The SnPP composition of Example 1 and the Comparative Example (1 micromole) were combined with iron sucrose (1 mg) to assess biomarkers for oxidative stress.

[1] = test system: cultured human tubule cells; assay: Cell viability of cultured human tubule cells exposed to SnPP; format: cell-based; conditions: for % Viable Cells: n = 6, control 100%
Protocol: The composition of Example 1 and the Comparative Example were exposed to incubated cultured human tubule cells with different concentrations of SnPP.

C=CC1=C(C)C2=Cc3c(C=C)c(C)c4[n]3[Sn]([Cl])([Cl])[n]3c(c(C)c(CCC(=O)O)c3=CC3=NC(=C4)C(C)=C3CCC(=O)O)=CC1=N2 [Example 1, Stannic protoporfin]
HO-1 induction relative to comparative example (HO-1): lower HO-1 induction | % Viable Cells ([1]; SnPP 10 nmol/mL): 97.9% | % Viable Cells ([1]; SnPP 25 nmol/mL): 95.3% | % Viable Cells ([1]; SnPP 75 nmol/mL): 88.9% | cell killing ([1]; highest concentration of SnPP (75 nmol/mL)): 11% | cell death relative to comparative example ([1]; human tubule cells): less cell death
